From patent publication US10758534B2 (Vertex Pharmaceuticals Incorporated, priority 2014, dated 2020)

Molecular target: T1, F508del (Homo sapiens, UniProt P13569, DEL508-508)
T1 construct: expressed in transfected cells
Test: Protocol 2: FRET membrane potential optical assay (VIPR), identification of correction compounds
Format: cell-based
Conditions: Table 3; compounds of Table 1 as modulators of CFTR activity; protocol not stated
Procedure, shortened: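 Single-addition HTS format: F508del-expressing NIH3T3 cells pre-incubated 16 hrs at 37° C. ± compound, with 27° C. culture as positive control. Channel activation by forskolin 10 μM and genistein 20 μM upon switch to gluconate bath, pH 7.4; read-out is FRET-based depolarization signal.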

T1 sequence (P13569 with tags, fused parts or gaps DEL508-508): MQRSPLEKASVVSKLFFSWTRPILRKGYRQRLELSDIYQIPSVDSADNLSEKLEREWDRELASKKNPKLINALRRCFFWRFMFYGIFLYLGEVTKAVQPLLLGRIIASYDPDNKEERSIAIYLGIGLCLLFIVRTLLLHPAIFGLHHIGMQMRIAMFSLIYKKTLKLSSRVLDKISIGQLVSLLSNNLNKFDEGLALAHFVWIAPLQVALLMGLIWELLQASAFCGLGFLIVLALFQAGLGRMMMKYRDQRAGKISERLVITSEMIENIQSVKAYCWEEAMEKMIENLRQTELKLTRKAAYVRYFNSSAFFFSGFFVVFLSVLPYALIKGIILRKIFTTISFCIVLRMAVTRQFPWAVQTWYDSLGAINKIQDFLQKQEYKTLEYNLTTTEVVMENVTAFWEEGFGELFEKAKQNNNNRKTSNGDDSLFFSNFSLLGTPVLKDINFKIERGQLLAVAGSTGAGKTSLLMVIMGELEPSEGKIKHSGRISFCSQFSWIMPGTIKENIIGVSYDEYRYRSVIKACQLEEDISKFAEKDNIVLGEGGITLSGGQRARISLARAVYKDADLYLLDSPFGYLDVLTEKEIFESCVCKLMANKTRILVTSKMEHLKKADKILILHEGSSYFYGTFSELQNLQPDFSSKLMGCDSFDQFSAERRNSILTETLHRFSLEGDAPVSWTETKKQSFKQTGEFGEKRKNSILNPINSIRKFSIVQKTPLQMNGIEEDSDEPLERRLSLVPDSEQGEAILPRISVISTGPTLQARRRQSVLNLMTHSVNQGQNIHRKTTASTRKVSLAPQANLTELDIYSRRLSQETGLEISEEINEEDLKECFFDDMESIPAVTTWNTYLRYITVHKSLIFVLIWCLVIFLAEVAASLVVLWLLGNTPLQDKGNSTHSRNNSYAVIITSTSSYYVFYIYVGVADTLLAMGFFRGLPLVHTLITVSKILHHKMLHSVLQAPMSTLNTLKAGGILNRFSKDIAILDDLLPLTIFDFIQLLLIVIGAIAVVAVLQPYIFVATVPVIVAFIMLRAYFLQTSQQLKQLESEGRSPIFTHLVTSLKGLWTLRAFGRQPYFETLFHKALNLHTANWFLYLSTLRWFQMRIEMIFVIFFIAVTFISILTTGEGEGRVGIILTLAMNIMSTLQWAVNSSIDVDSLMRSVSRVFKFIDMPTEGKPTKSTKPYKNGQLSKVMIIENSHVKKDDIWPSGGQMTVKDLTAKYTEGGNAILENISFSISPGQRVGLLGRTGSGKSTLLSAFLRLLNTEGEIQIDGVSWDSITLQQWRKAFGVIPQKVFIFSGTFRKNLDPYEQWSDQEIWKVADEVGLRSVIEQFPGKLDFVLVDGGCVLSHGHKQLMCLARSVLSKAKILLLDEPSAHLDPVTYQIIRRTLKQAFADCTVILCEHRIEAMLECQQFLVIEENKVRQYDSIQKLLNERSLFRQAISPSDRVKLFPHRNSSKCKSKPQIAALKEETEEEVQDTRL

| SMILES | EC30 |
| --- | --- |
| CC(C)Oc1ccc(-c2ccc(C(=O)NS(=O)(=O)c3cccc(N)n3)c(N3[C@H](C)CC[C@@H]3C)n2)cn1 [Compound 337, N-[(6-amino-2-pyridyl)sulfonyl]-2-[(2S,5R)-2,5-dimethylpyrrolidin-1-yl]-6-(6-isopropoxy-3-pyridyl)pyridine-3-carboxamide] | +++ (“+++” means <3 uM) |
| Cc1cc(C)c(Oc2cc(C(C)(C)C)ncc2C(=O)NS(=O)(=O)c2cccc(N)c2)c(C)c1 [Compound 338, N-(3-aminophenyl)sulfonyl-6-tert-butyl-4-(2,4,6-trimethylphenoxy)pyridine-3-carboxamide] | +++ (“+++” means <3 uM) |
| Cc1cccc(C)c1Cn1nc(-c2ccccc2Cl)cc1C(=O)NS(=O)(=O)c1ccccc1 [Compound 339, N-(benzenesulfonyl)-5-(2-chlorophenyl)-2-[(2,6-dimethylphenyl)methyl]pyrazole-3-carboxamide] | +++ (“+++” means <3 uM) |
| Cc1ccc(Oc2nc(-c3ccccc3)ccc2C(=O)NS(=O)(=O)c2cccc(N)n2)c(C)c1 [Compound 340, N-[(6-amino-2-pyridyl)sulfonyl]-2-(2,4-dimethylphenoxy)-6-phenyl-pyridine-3-carboxamide] | +++ (“+++” means <3 uM) |
| Cc1cc(C)c(Oc2nc(C(C)(C)C)ccc2C(=O)NS(=O)(=O)c2ccccc2)c(C)c1 [Compound 341, N-(benzenesulfonyl)-6-tert-butyl-2-(2,4,6-trimethylphenoxy)pyridine-3-carboxamide] | +++ (“+++” means <3 uM) |
| Cc1ccccc1C(C)n1nc(C(C)(C)C)cc1C(=O)NS(=O)(=O)c1cccc(N)c1 (stereo not drawn) [Compound 342, N-(3-aminophenyl)sulfonyl-5-tert-butyl-2-[1-(o-tolyl)ethyl]pyrazole-3-carboxamide] | +++ (“+++” means <3 uM) |
| Cc1cc(C)c(Cn2c(C(=O)NS(=O)(=O)c3cccc(N)c3)cc3cc(Cl)ccc32)c(C)c1 [Compound 344, N-(3-aminophenyl)sulfonyl-5-chloro-1-[(2,4,6-trimethylphenyl)methyl]indole-2-carboxamide] | +++ (“+++” means <3 uM) |
| Cc1cc(C)c(Oc2nc(-c3ccc(F)c4c3OCO4)ccc2C(=O)NS(=O)(=O)c2cccc(N)n2)c(C)c1 [Compound 345, N-[(6-amino-2-pyridyl)sulfonyl]-6-(7-fluoro-1,3-benzodioxol-4-yl)-2-(2,4,6-trimethylphenoxy)pyridine-3-carboxamide] | +++ (“+++” means <3 uM) |
| Cc1cc(C)c(Cc2nc(C(C)(C)C)ccc2C(=O)NS(=O)(=O)c2cccc(N)c2)c(C)c1 [Compound 346, N-(3-aminophenyl)sulfonyl-6-tert-butyl-2-[(2,4,6-trimethylphenyl)methyl]pyridine-3-carboxamide] | +++ (“+++” means <3 uM) |
| COc1ccccc1-c1cc(C(=O)NS(=O)(=O)c2ccccc2)n(Cc2c(C)cccc2C)n1 [Compound 347, N-(benzenesulfonyl)-2-[(2,6-dimethylphenyl)methyl]-5-(2-methoxyphenyl)pyrazole-3-carboxamide] | +++ (“+++” means <3 uM) |
| COc1cccc2c1cc(C(=O)NS(=O)(=O)c1ccccc1)n2Cc1c(C)cc(C)cc1C [Compound 348, N-(benzenesulfonyl)-4-methoxy-1-[(2,4,6-trimethylphenyl)methyl]indole-2-carboxamide] | +++ (“+++” means <3 uM) |
| Cc1ccc(-c2nc(C(C)(C)C)ccc2C(=O)NS(=O)(=O)c2cccc(N)c2)cc1F [Compound 349, N-(3-aminophenyl)sulfonyl-6-tert-butyl-2-(3-fluoro-4-methyl-phenyl)pyridine-3-carboxamide] | ++ (“++” means between 3 uM and 10 uM) |
| Cc1cc(C)c(Oc2ccc(C(C)(C)C)nc2C(=O)NS(=O)(=O)c2ccccc2)c(C)c1 [Compound 350, N-(benzenesulfonyl)-6-tert-butyl-3-(2,4,6-trimethylphenoxy)pyridine-2-carboxamide] | +++ (“+++” means <3 uM) |
| Cc1cc(C)c(Oc2nc(-c3cc(OCC(C)C)ccc3F)ccc2C(=O)NS(=O)(=O)c2cccc(N)n2)c(C)c1 [Compound 351, N-[(6-amino-2-pyridyl)sulfonyl]-6-(2-fluoro-5-isobutoxy-phenyl)-2-(2,4,6-trimethylphenoxy)pyridine-3-carboxamide] | +++ (“+++” means <3 uM) |
| Cc1cc(C)c(Cn2nc(C(C)(C)C)cc2C(=O)NS(=O)(=O)c2cccc3ncccc23)c(C)c1 [Compound 352, 5-tert-butyl-N-(5-quinolylsulfonyl)-2-[(2,4,6-trimethylphenyl)methyl]pyrazole-3-carboxamide] | +++ (“+++” means <3 uM) |
| CC(C)Oc1ccc(-c2ccc(C(=O)NS(=O)(=O)c3cccc(N)n3)c(N3CCCC(C)C3C)n2)cn1 (stereo not drawn) [Compound 353, N-[(6-amino-2-pyridyl)sulfonyl]-2-(2,3-dimethyl-1-piperidyl)-6-(6-isopropoxy-3-pyridyl)pyridine-3-carboxamide] | +++ (“+++” means <3 uM) |
| Cc1cc(C)c(Cn2c(C(=O)NS(=O)(=O)c3ccccc3)cc3cccc(C)c32)c(C)c1 [Compound 354, N-(benzenesulfonyl)-7-methyl-1-[(2,4,6-trimethylphenyl)methyl]indole-2-carboxamide] | +++ (“+++” means <3 uM) |

| SMILES | EC30 |
| --- | --- |
| CC(C)COc1cc(F)cc(-c2ccc(C(=O)NS(=O)(=O)c3ccn[nH]3)c(N3CCCCC3)n2)c1 [Compound 355, 6-(3-fluoro-5-isobutoxy-phenyl)-2-(1-piperidyl)-N-(1H-pyrazol-5-ylsulfonyl)pyridine-3-carboxamide] | +++ (“+++” means <3 uM) |
| Cc1cc(C)c(Cn2nc(C(C)(C)C)c(C)c2C(=O)NS(=O)(=O)c2cccc(N)n2)c(C)c1 [Compound 356, N-[(6-amino-2-pyridyl)sulfonyl]-5-tert-butyl-4-methyl-2-[(2,4,6-trimethylphenyl)methyl]pyrazole-3-carboxamide] | +++ (“+++” means <3 uM) |
| Cc1cccc(C)c1Cn1nc(-c2ccsc2)cc1C(=O)NS(=O)(=O)c1ccccc1 [Compound 357, N-(benzenesulfonyl)-2-[(2,6-dimethylphenyl)methyl]-5-(3-thienyl)pyrazole-3-carboxamide] | ++ (“++” means between 3 uM and 10 uM) |
| Cc1cc(C)c(Cn2c(C(=O)NS(=O)(=O)c3ccccc3C#N)cc3ccccc32)c(C)c1 [Compound 358] | +++ (“+++” means <3 uM) |
| CCc1ccc(-c2nc(C(C)(C)C)ccc2C(=O)NS(=O)(=O)c2cccc(N)c2)cc1 [Compound 359, N-(3-aminophenyl)sulfonyl-6-tert-butyl-2-(4-ethylphenyl)pyridine-3-carboxamide] | +++ (“+++” means <3 uM) |
| Cc1cc(C)c(Cc2oc(C(C)(C)C)nc2C(=O)NS(=O)(=O)c2cccc(N)c2)c(C)c1 [Compound 360, N-(3-aminophenyl)sulfonyl-2-tert-butyl-5-[(2,4,6-trimethylphenyl)methyl]oxazole-4-carboxamide] | +++ (“+++” means <3 uM) |
| CC(C)COc1cc(F)cc(-c2ccc(C(=O)NS(=O)(=O)c3cccc(N)n3)c(N3CCCC3(C)C)n2)c1 [Compound 361, N-[(6-amino-2-pyridyl)sulfonyl]-2-(2,2-dimethylpyrrolidin-1-yl)-6-(3-fluoro-5-isobutoxy-phenyl)pyridine-3-carboxamide] | +++ (“+++” means <3 uM) |
| Cc1cc(C)c(Cn2c(C(=O)NS(=O)(=O)c3cccc(N)c3)cc3c(Cl)cccc32)c(C)c1 [Compound 362, N-(3-aminophenyl)sulfonyl-4-chloro-1-[(2,4,6-trimethylphenyl)methyl]indole-2-carboxamide] | +++ (“+++” means <3 uM) |
| Cc1cccc(C)c1Cn1nc(-c2cccc3c2ccn3C)cc1C(=O)NS(=O)(=O)c1ccccc1 [Compound 363, N-(benzenesulfonyl)-2-[(2,6-dimethylphenyl)methyl]-5-(1-methylindol-4-yl)pyrazole-3-carboxamide] | +++ (“+++” means <3 uM) |
| Cc1cc(C)c(Oc2nc(-c3ccccc3C(C)(C)C)ccc2C(=O)NS(=O)(=O)c2cccc(N)n2)c(C)c1 [Compound 364, N-[(6-amino-2-pyridyl)sulfonyl]-6-(2-tert-butylphenyl)-2-(2,4,6-trimethylphenoxy)pyridine-3-carboxamide] | +-F+ |
| COc1ncccc1S(=O)(=O)NC(=O)c1ccc(C2(C)CC2)nc1Oc1c(C)cc(C)cc1C [Compound 365, N-[(2-methoxy-3-pyridyl)sulfonyl]-6-(1-methylcyclopropyl)-2-(2,4,6-trimethylphenoxy)pyridine-3-carboxamide] | +++ (“+++” means <3 uM) |
| Cc1cc(C)c(Cn2nc(-c3ccccc3)cc2C(=O)NS(=O)(=O)c2cccc(N)c2)c(C)c1 [Compound 366] | +++ (“+++” means <3 uM) |
| Cc1cc(C)c(Cc2cn(C(C)(C)C)nc2C(=O)NS(=O)(=O)c2cccc(N)c2)c(C)c1 [Compound 367] | +++ (“+++” means <3 uM) |
| CC(C)COc1cc(F)cc(-c2ccc(C(=O)NS(=O)(=O)c3cccc(N)n3)c(N3C[C@@H](C)CC3(C)C)n2)c1 [Compound 368, N-[(6-amino-2-pyridyl)sulfonyl]-6-(3-fluoro-5-isobutoxy-phenyl)-2-[(4S)-2,2,4-trimethylpyrrolidin-1-yl]pyridine-3-carboxamide] | +++ (“+++” means <3 uM) |
| Cc1cccc(C)c1Cn1nc(-c2ccccc2C(F)(F)F)cc1C(=O)NS(=O)(=O)c1ccccc1 [Compound 369, N-(benzenesulfonyl)-2-[(2,6-dimethylphenyl)methyl]-5-[2-(trifluoromethyl)phenyl]pyrazole-3-carboxamide] | +++ (“+++” means <3 uM) |
| Cc1cccc(C)c1Cn1nc(C2CC3CCC2C3)cc1C(=O)NS(=O)(=O)c1cccc(N)c1 (stereo not drawn) [Compound 370, N-(3-aminophenyl)sulfonyl-2-[(2,6-dimethylphenyl)methyl]-5-norbornan-2-yl-pyrazole-3-carboxamide] | +++ (“+++” means <3 uM) |
